{"source": "paper PMC12705620", "about": "(Frontiers in Pharmacology, 2025)", "key": {"[1]": {"test_system": "HaCaT keratinocytes", "assay": "In vitro scratch wound assay", "format": "cell-based, human", "details": "1 µM peptide (TGF-β 20 ng/mL)", "description": "Cell migration following injury was assessed using an in vitro scratch assay with the IncuCyte wound maker tool (Sartorius). HaCaT keratinocytes were seeded in 96-well ImageLock plates (Sartorius) at 3 × 10^5 cells/well (100 µL) in DMEM supplemented with 10% FBS and incubated at 37 °C, 5% CO2 for 48 h, with medium change at 24 h, until confluence. Uniform scratches were introduced using the wound maker tool according to the manufacturer’s instructions. After wounding, wells were washed twice with 100 µL PBS to remove cell debris. Cells were then treated with 1 µM peptides in serum-free DMEM, to focus specifically on cell migration from the wound edges. The absence of serum minimizes interference with peptide activity. Transforming growth factor-beta (TGF-β; human; 20 ng/mL; Sigma-Aldrich) and 5% dimethyl sulfoxide (DMSO; Sigma-Aldrich) were used as positive and negative controls, respectively. Additional controls included serum-free DMEM (no-treatment control) and 50% (v/v) acetonitrile in Milli-Q water as solvent control. Wound closure was monitored using the IncuCyte S3 live-cell imaging system (Sartorius) with bright-field microscopy. Images were captured every 6 h for up to 60 h. Image analysis was performed using ImageJ software (version 1.53t, NIH, USA) with the “Wound Healing” plugin, as described by Suarez Arnedo et al. ([Suarez-Arnedo et al., 2020]). Quantitative parameters included wound width (µm), percent wound closure, and migration rate (µm/hour)."}, "[2]": {"test_system": "Staphylococcus aureus JAR060131", "format": "cell-based", "details": "JAR060131, 18 h", "description": "Bactericidal activity was assessed as previously described ([Breij et al., 2018]). Briefly, mid-logarithmic phase bacterial cultures were diluted in RPMI to 1 × 10^7 CFU/mL. For fungicidal assays, fungal cultures were prepared in RPMI supplemented with 1% glucose (Merck) and diluted to 2–5 × 10^5 CFU/mL. For each condition, 10 µL of the suspension was added to 90 µL of peptide-containing RPMI or RPMI supplemented with 50% (v/v) pooled human plasma (hereafter referred to as 50% plasma; final bacterial concentration 1 × 10^6 CFU/mL, final fungal concentration 2–5 × 10^4 CFU/mL. Human plasma from four healthy volunteers (Sanquin, Netherlands) was pooled, and stored at −20 °C until use. Peptides were tested similarly for fungicidal activity, after 18 h of incubation at 37 °C with shaking (120 rpm) under humidified conditions, bacterial and fungal survival was determined by plating 10 µL aliquots onto BA plates. Assays were performed in duplicate in round-bottom polypropylene microtiter plates (Costar) and repeated independently three times. Untreated controls included bacteria exposed to RPMI alone or RPMI with 50% plasma. Bactericidal and fungicidal activity was expressed as the lethal concentration 99.9% (LC99.9), defined as the lowest peptide concentration causing ≥99.9% reduction in numbers of CFU compared to the initial inoculum."}, "[3]": {"test_system": "S. aureus LUH14616 (MRSA)", "assay": "Ex vivo human skin wound infection model", "set-up": "species or system Staphylococcus aureus", "details": "0.5% (v/v) in 70% ethanol, positive control, 4 h, p < 0.001", "source_text": "Human skin from 3 donors was obtained via the Residual Tissue Biobank of the Red Cross Hospital (Beverwijk, Netherlands). The use of these coded, post-operative residual tissue samples was approved by patients through the informed opt-out-plus protocol of the Red Cross Hospital Skin ([Code-of-Conduct-for-Health-Research, 2022]) and processed for an ex vivo wound infection model as described ([Dijksteel et al., 2020]). The Wounded skin grafts were sectioned into approximately 1 cm^2 samples using a sterile scalpel and were decontaminated by immersion in 70% ethanol for 30 min, followed by three PBS washes. Samples were placed dermis-down and wound-side-up on stainless steel grids with central indentations, positioned in 12-well plates, and cultured at the air–liquid interface in DMEM at 37 °C and 5% CO2. To confine reagents to the wound area, a resin barrier (OpalDam; Ultradent) was applied to the wounded area and polymerized using a hand-held UV light (Valo X) for 10 s. The wounds were then topically infected with 10 µL of S. aureus LUH14616 suspension of 1 × 10^7 CFU/mL (final dose: 1 × 10^5 CFU/graft) in PBS for 1 h, followed by topical application of 10 µL of peptide solution for 4 h. Chlorhexidine (0.5% (v/v) in 70% ethanol; Entick B.V.) and PBS were used as positive and negative controls, respectively. After treatment, tissue samples were transferred to polypropylene vials containing 1 mL PBS supplemented with 0.025% (v/v) SPS and a 7 mm stainless steel bead. Homogenization was performed using a MagnaLyser System (Roche) with three 30-s cycles at 7,000 rpm, with 30 s of cooling on ice between cycles. Homogenates were 10-fold serially diluted in PBS, and 100 µL aliquots were plated on BA plates. CFUs were enumerated after overnight incubation at 37 °C."}}, "data": [{"molecule": "TGF-β", "values": [{"measurement": "Percentage of wound closure", "setting": "[1]; 60 h (legend: 64 h), versus no treatment", "value": "near-complete wound closure"}, {"measurement": "Wound width reduction", "setting": "[1]; serum-free DMEM, versus untreated control", "value": "highest wound width reduction"}, {"measurement": "Rate of cell migration", "setting": "[1]; versus no treatment", "value": "faster wound closure"}]}, {"molecule": "N=C(N)NCCC[C@H](NC(=O)[C@H](Cc1c[nH]c2ccccc12)NC(=O)[C@H](CCC(N)=O)NC(=O)[C@H](Cc1c[nH]c2ccccc12)NC(=O)[C@H](CCCNC(=N)N)NC(=O)[C@@H](N)CCCNC(=N)N)C(=O)NCC(CNC(=O)[C@H](CCCNC(=N)N)NC(=O)[C@H](Cc1c[nH]c2ccccc12)NC(=O)[C@H](CCC(N)=O)NC(=O)[C@H](Cc1c[nH]c2ccccc12)NC(=O)[C@H](CCCNC(=N)N)NC(=O)[C@@H](N)CCCNC(=N)N)OCC(=O)NCCCCCC(=O)N[C@@H](CSSC[C@H](NC(=O)CCCCCNC(=O)COC(CNC(=O)[C@H](CCCNC(=N)N)NC(=O)[C@H](Cc1c[nH]c2ccccc12)NC(=O)[C@H](CCC(N)=O)NC(=O)[C@H](Cc1c[nH]c2ccccc12)NC(=O)[C@H](CCCNC(=N)N)NC(=O)[C@@H](N)CCCNC(=N)N)CNC(=O)[C@H](CCCNC(=N)N)NC(=O)[C@H](Cc1c[nH]c2ccccc12)NC(=O)[C@H](CCC(N)=O)NC(=O)[C@H](Cc1c[nH]c2ccccc12)NC(=O)[C@H](CCCNC(=N)N)NC(=O)[C@@H](N)CCCNC(=N)N)C(N)=O)C(N)=O", "note": "(some centres unmarked) [LBT-2]", "values": [{"measurement": "LC99.9", "setting": "[2]", "value": 0.47, "unit": "µM"}]}, {"molecule": "[H]/N=C(\\N/C(=N/[H])NCCCCCCNC(=N)NC(=N)Nc1ccc(Cl)cc1)Nc1ccc(Cl)cc1", "note": "[Chlorhexidine, reference compound]", "values": [{"measurement": "Reduction of bacterial burden (CFU counts)", "setting": "[3]", "value": "significantly reduced bacterial burden"}]}]}
